Results from US10711002B2, “Purine compounds and method for the treatment of cancer” (THE ROYAL INSTITUTION FOR THE ADVANCEMENT OF …, priority 2016, dated 2020).

The compounds below were run against T1, AURKA (Aurora A) (Homo sapiens, UniProt O14965) (assay: High-throughput kinase assay). Conditions: 10 nM; read-out: Percent inhibition of kinase activity in vitro, AURKA (Aurora A).
T1 sequence (O14965 1-403): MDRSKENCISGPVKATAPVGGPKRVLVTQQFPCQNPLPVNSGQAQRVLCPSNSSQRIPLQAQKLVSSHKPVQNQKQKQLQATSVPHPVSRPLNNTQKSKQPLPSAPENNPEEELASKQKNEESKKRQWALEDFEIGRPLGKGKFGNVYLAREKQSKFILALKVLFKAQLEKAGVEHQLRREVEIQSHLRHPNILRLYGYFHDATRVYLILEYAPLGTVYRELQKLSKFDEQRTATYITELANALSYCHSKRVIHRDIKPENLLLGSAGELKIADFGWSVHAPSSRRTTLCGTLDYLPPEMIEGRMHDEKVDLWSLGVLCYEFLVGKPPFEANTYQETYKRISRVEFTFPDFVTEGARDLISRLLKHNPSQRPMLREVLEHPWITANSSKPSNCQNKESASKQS
Assay type: biochemical
Description: (§1) Screening of Compounds 1-4 against several kinases identified two prominent targets of these compounds as the Aurora A kinase and calcium dependent protein kinase C isoforms α, βI, βII and […] (Tables 1 to 3). IC50s for these two targets were obtained by plotting inhibition levels at 500 nM, 100 nM, 50 nM and 10 nM (FIG. 3). These kinases are directly involved in pathways controlling cell differentiation programs, metastasis signaling, as well as EMT and CSC programming and their overexpression was reported to predict decreased metastasis-free survival.

Q: With `O=c1c2ccccc2[se]n1-c1nc(N[C@H]2CC[Se]C2)c2nc[nH]c2n1` [Compound 4] as the compound, how does the inhibition at 0.01 µM read?
A: 55%

Same assay, conditions: 50 nM; read-out: Percent inhibition of kinase activity in vitro, AURKA (Aurora A)

Q: `O=c1c2ccccc2[se]n1-c1nc(N[C@H]2CC[Se]C2)c2nc[nH]c2n1` [Compound 4] was tested. Which inhibition at 0.05 µM did it give?
A: 87%

Same assay, conditions: 100 nM; read-out: Percent inhibition of kinase activity in vitro, AURKA (Aurora A)

Q: `O=c1c2ccccc2[se]n1-c1nc(NC2CC[Se]C2)c2nc[nH]c2n1` (stereo not drawn) [Compound 2] was tested. Which inhibition at 0.1 µM did it give?
A: 93%

Q: Which inhibition at 0.1 µM does the source give for `O=c1c2ccccc2[se]n1-c1nc(N[C@H]2CC[Se]C2)c2nc[nH]c2n1` [Compound 4] here?
A: 95%

Same assay, conditions: 500 nM; read-out: Percent inhibition of kinase activity in vitro, AURKA (Aurora A)

Q: For `O=c1c2ccccc2[se]n1-c1nc(NC2CC[Se]C2)c2nc[nH]c2n1` (stereo not drawn) [Compound 2], which inhibition at 0.5 µM is on record?
A: 97%

Same assay, conditions: from inhibition levels at 500, 100, 50 and 10 nM

Q: How did the IC50 turn out when `O=c1c2ccccc2[se]n1-c1nc(N[C@H]2CC[Se]C2)c2nc[nH]c2n1` [Compound 4] was run?
A: 3.8 nM

The compounds below were run against AURKB (Aurora B) (Homo sapiens, UniProt Q96GD4) (assay: High-throughput kinase assay). Conditions: 100 nM; read-out: Percent inhibition of kinase activity in vitro, AURKB (Aurora B).
Assay type: biochemical
Description: as §1

Chain of AURKB (Aurora B) (Q96GD4 whole entry): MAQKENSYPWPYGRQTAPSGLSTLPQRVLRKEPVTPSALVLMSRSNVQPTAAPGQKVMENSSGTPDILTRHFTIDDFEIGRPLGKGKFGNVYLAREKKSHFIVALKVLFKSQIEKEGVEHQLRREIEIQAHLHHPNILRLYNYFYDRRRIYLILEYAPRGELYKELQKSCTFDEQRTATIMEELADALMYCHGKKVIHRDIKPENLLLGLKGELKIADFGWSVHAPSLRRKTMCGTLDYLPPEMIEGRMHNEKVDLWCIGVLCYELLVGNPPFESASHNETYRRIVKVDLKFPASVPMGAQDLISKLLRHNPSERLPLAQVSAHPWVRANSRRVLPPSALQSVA

Q: Which inhibition at 0.1 µM does the source give for `O=c1c2ccccc2[se]n1-c1nc(NC2CC[Se]C2)c2nc[nH]c2n1` (stereo not drawn) [Compound 2] here?
A: 19%

Q: How did the inhibition at 0.1 µM turn out when `O=c1c2ccccc2[se]n1-c1nc(N[C@H]2CC[Se]C2)c2nc[nH]c2n1` [Compound 4] was run?
A: 14%

Same assay, conditions: 500 nM; read-out: Percent inhibition of kinase activity in vitro, AURKB (Aurora B)

Q: How did the inhibition at 0.5 µM turn out when `O=c1c2ccccc2[se]n1-c1nc(NC2CC[Se]C2)c2nc[nH]c2n1` (stereo not drawn) [Compound 2] was run?
A: 13%

What follows are compounds tested against BRAF-ZLYTE-100 (Homo sapiens, UniProt P15056) (assay: High-throughput kinase assay). Conditions: 100 nM; read-out: Percent inhibition of kinase activity in vitro, BRAF-ZLYTE-100.
Assay type: biochemical
Description: as §1

Q: With `O=c1c2ccccc2[se]n1-c1nc(NC2CC[Se]C2)c2nc[nH]c2n1` (stereo not drawn) [Compound 2] as the compound, how does the inhibition at 0.1 µM read?
A: 0%

Q: For `O=c1c2ccccc2[se]n1-c1nc(N[C@H]2CC[Se]C2)c2nc[nH]c2n1` [Compound 4], which inhibition at 0.1 µM is on record?
A: 0%

These compounds were tested against EGFR (ErbB1) (Homo sapiens, UniProt P00533) (assay: High-throughput kinase assay). Conditions: 100 nM; read-out: Percent inhibition of kinase activity in vitro, EGFR (ErbB1).
Assay type: biochemical
Description: as §1

Q: With `O=c1c2ccccc2[se]n1-c1nc(N[C@H]2CC[Se]C2)c2nc[nH]c2n1` [Compound 4] as the compound, how does the inhibition at 0.1 µM read?
A: 0%

Same assay, conditions: 500 nM; read-out: Percent inhibition of kinase activity in vitro, EGFR (ErbB1)

Q: How did the inhibition at 0.5 µM turn out when `O=c1c2ccccc2[se]n1-c1nc(NC2CC[Se]C2)c2nc[nH]c2n1` (stereo not drawn) [Compound 2] was run?
A: 0%

These compounds were tested against FLT1 (VEGFR1) (Homo sapiens, UniProt P17948) (assay: High-throughput kinase assay). Conditions: 100 nM; read-out: Percent inhibition of kinase activity in vitro, FLT1 (VEGFR1).
Assay type: biochemical
Description: as §1

Chain of FLT1 (VEGFR1) (P17948 27-1338): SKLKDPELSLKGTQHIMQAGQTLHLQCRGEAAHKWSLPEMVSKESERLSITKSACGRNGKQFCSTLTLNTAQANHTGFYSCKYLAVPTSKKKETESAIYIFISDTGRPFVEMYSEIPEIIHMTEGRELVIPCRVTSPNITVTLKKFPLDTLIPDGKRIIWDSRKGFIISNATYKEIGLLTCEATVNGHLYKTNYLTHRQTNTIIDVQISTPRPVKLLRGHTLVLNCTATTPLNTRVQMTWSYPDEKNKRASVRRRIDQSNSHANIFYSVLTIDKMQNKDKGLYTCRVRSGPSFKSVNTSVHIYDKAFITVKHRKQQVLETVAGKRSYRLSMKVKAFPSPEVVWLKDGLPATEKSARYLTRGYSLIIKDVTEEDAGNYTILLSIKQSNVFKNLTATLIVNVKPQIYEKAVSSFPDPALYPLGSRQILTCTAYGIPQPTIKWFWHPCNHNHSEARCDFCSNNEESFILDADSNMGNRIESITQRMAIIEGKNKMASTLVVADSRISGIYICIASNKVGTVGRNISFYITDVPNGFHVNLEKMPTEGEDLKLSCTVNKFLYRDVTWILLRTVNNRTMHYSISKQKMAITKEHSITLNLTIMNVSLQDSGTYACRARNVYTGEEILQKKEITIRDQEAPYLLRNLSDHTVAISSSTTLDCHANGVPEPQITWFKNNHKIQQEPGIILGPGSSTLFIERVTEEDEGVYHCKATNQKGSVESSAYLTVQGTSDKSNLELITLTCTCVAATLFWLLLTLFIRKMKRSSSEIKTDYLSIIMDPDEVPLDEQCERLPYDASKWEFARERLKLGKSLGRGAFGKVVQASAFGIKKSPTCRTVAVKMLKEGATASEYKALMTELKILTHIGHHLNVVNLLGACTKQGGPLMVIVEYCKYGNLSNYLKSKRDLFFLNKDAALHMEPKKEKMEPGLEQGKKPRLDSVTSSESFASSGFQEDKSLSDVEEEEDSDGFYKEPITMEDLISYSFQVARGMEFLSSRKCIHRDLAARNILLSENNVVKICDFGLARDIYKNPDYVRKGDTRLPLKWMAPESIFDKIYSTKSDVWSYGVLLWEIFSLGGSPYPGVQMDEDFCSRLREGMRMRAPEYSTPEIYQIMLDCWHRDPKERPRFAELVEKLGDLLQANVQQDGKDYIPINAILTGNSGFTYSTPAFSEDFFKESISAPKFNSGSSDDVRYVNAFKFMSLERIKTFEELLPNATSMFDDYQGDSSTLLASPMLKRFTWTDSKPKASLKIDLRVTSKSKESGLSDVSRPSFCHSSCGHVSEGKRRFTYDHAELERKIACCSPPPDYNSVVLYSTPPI

Q: How did the inhibition at 0.1 µM turn out when `O=c1c2ccccc2[se]n1-c1nc(N[C@H]2CC[Se]C2)c2nc[nH]c2n1` [Compound 4] was run?
A: 4%

Same assay, conditions: 500 nM; read-out: Percent inhibition of kinase activity in vitro, FLT1 (VEGFR1)

Q: `O=c1c2ccccc2[se]n1-c1nc(NC2CC[Se]C2)c2nc[nH]c2n1` (stereo not drawn) [Compound 2] was tested. Which inhibition at 0.5 µM did it give?
A: 5%

These compounds were tested against FRAP1 (mTOR) (Homo sapiens, UniProt P42345) (assay: High-throughput kinase assay). Conditions: 100 nM; read-out: Percent inhibition of kinase activity in vitro, FRAP1 (mTOR).
Assay type: biochemical
Description: as §1

Q: How did the inhibition at 0.1 µM turn out when `O=c1c2ccccc2[se]n1-c1nc(N[C@H]2CC[Se]C2)c2nc[nH]c2n1` [Compound 4] was run?
A: 8%

Same assay, conditions: 500 nM; read-out: Percent inhibition of kinase activity in vitro, FRAP1 (mTOR)

Q: How did the inhibition at 0.5 µM turn out when `O=c1c2ccccc2[se]n1-c1nc(NC2CC[Se]C2)c2nc[nH]c2n1` (stereo not drawn) [Compound 2] was run?
A: 5%

The compounds below were run against IGF1R (Homo sapiens, UniProt P08069) (assay: High-throughput kinase assay). Conditions: 100 nM; read-out: Percent inhibition of kinase activity in vitro, IGF1R.
Assay type: biochemical
Description: as §1

Q: With `O=c1c2ccccc2[se]n1-c1nc(N[C@H]2CC[Se]C2)c2nc[nH]c2n1` [Compound 4] as the compound, how does the inhibition at 0.1 µM read?
A: 4%

Same assay, conditions: 500 nM; read-out: Percent inhibition of kinase activity in vitro, IGF1R

Q: `O=c1c2ccccc2[se]n1-c1nc(NC2CC[Se]C2)c2nc[nH]c2n1` (stereo not drawn) [Compound 2] was tested. Which inhibition at 0.5 µM did it give?
A: 11%

Each compound was assayed against JAK2 (Homo sapiens, UniProt O60674) (assay: High-throughput kinase assay). Conditions: 100 nM; read-out: Percent inhibition of kinase activity in vitro, JAK2.
Assay type: biochemical
Description: as §1

Chain of JAK2 (O60674 whole entry): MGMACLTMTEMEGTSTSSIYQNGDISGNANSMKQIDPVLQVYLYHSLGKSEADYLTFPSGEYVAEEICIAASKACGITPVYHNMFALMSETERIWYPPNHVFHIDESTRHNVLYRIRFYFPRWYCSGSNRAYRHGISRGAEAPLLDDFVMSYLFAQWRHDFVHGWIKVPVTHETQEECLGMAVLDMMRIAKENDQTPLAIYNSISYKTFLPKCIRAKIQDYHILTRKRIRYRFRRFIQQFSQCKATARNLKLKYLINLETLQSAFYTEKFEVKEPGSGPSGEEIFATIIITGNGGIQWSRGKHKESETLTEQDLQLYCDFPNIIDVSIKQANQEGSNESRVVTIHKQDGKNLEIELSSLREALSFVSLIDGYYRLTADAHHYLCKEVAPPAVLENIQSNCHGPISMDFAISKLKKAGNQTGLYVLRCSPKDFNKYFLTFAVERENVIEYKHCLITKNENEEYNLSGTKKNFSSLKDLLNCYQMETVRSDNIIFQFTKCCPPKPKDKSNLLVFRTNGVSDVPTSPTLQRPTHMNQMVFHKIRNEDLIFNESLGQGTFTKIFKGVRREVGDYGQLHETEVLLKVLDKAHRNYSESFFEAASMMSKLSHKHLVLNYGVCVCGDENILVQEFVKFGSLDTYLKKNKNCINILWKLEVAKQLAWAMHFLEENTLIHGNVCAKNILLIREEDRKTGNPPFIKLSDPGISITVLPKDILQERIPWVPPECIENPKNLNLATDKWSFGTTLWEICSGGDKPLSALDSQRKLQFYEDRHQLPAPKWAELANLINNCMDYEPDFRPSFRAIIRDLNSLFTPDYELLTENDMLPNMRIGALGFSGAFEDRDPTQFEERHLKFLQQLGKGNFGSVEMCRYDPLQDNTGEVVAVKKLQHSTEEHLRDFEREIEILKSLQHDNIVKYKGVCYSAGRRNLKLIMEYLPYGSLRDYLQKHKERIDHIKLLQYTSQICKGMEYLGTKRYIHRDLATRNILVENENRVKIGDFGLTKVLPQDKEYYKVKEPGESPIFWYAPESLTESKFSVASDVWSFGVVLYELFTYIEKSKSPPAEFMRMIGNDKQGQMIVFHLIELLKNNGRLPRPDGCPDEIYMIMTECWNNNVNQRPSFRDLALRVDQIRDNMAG

Q: How did the inhibition at 0.1 µM turn out when `O=c1c2ccccc2[se]n1-c1nc(NC2CC[Se]C2)c2nc[nH]c2n1` (stereo not drawn) [Compound 2] was run?
A: 15%

Q: How did the inhibition at 0.1 µM turn out when `O=c1c2ccccc2[se]n1-c1nc(N[C@H]2CC[Se]C2)c2nc[nH]c2n1` [Compound 4] was run?
A: 18%

Same assay, conditions: 500 nM; read-out: Percent inhibition of kinase activity in vitro, JAK2

Q: For `O=c1c2ccccc2[se]n1-c1nc(NC2CC[Se]C2)c2nc[nH]c2n1` (stereo not drawn) [Compound 2], which inhibition at 0.5 µM is on record?
A: 13%

Each compound was assayed against LCK (Homo sapiens, UniProt P06239) (assay: High-throughput kinase assay). Conditions: 100 nM; read-out: Percent inhibition of kinase activity in vitro, LCK.
Assay type: biochemical
Description: as §1

Chain of LCK (P06239 whole entry): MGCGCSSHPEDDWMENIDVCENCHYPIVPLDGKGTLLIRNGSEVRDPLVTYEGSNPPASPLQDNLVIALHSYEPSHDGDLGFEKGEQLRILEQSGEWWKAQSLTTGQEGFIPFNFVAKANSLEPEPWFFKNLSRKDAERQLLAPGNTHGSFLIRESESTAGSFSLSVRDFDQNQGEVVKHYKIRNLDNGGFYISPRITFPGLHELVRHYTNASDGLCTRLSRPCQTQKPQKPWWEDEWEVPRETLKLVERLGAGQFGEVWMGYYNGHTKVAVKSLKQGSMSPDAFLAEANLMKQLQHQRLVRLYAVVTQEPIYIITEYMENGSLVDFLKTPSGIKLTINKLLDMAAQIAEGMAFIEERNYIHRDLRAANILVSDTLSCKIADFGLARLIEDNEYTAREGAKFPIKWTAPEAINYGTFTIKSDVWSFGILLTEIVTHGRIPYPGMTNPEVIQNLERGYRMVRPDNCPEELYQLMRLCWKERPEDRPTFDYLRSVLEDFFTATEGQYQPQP

Q: How did the inhibition at 0.1 µM turn out when `O=c1c2ccccc2[se]n1-c1nc(NC2CC[Se]C2)c2nc[nH]c2n1` (stereo not drawn) [Compound 2] was run?
A: 10%

Q: `O=c1c2ccccc2[se]n1-c1nc(N[C@H]2CC[Se]C2)c2nc[nH]c2n1` [Compound 4] was tested. Which inhibition at 0.1 µM did it give?
A: 8%

Same assay, conditions: 500 nM; read-out: Percent inhibition of kinase activity in vitro, LCK

Q: How did the inhibition at 0.5 µM turn out when `O=c1c2ccccc2[se]n1-c1nc(NC2CC[Se]C2)c2nc[nH]c2n1` (stereo not drawn) [Compound 2] was run?
A: 14%

What follows are compounds tested against PRKCA (PKC alpha) (Homo sapiens, UniProt P17252) (assay: High-throughput kinase assay). Conditions: 10 nM; read-out: Percent inhibition of kinase activity in vitro, PRKCA (PKC alpha).
Assay type: biochemical
Description: as §1

Q: How did the inhibition at 0.01 µM turn out when `O=c1c2ccccc2[se]n1-c1nc(N[C@H]2CC[Se]C2)c2nc[nH]c2n1` [Compound 4] was run?
A: 22%

Same assay, conditions: 50 nM; read-out: Percent inhibition of kinase activity in vitro, PRKCA (PKC alpha)

Q: For `O=c1c2ccccc2[se]n1-c1nc(N[C@H]2CC[Se]C2)c2nc[nH]c2n1` [Compound 4], which inhibition at 0.05 µM is on record?
A: 101%

Same assay, conditions: 100 nM; read-out: Percent inhibition of kinase activity in vitro, PRKCA (PKC alpha)

Q: `O=c1c2ccccc2[se]n1-c1nc(NC2CC[Se]C2)c2nc[nH]c2n1` (stereo not drawn) [Compound 2] was tested. Which inhibition at 0.1 µM did it give?
A: 84%

Q: For `O=c1c2ccccc2[se]n1-c1nc(N[C@H]2CC[Se]C2)c2nc[nH]c2n1` [Compound 4], which inhibition at 0.1 µM is on record?
A: 98%

Same assay, conditions: 500 nM; read-out: Percent inhibition of kinase activity in vitro, PRKCA (PKC alpha)

Q: With `O=c1c2ccccc2[se]n1-c1nc(NC2CC[Se]C2)c2nc[nH]c2n1` (stereo not drawn) [Compound 2] as the compound, how does the inhibition at 0.5 µM read?
A: 96%

Same assay, conditions: from inhibition levels at 500, 100, 50 and 10 nM

Q: Which IC50 does the source give for `O=c1c2ccccc2[se]n1-c1nc(N[C@H]2CC[Se]C2)c2nc[nH]c2n1` [Compound 4] here?
A: 10.9 nM

Each compound was assayed against PRKCD (PKC delta) (Homo sapiens, UniProt Q05655) (assay: High-throughput kinase assay). Conditions: 50 nM; read-out: Percent inhibition of kinase activity in vitro, PRKCD (PKC delta).
Assay type: biochemical
Description: as §1

Q: With `O=c1c2ccccc2[se]n1-c1nc(N[C@H]2CC[Se]C2)c2nc[nH]c2n1` [Compound 4] as the compound, how does the inhibition at 0.05 µM read?
A: 0%

What follows are compounds tested against T2, PRKCE (PKC epsilon) (Homo sapiens, UniProt Q02156) (assay: High-throughput kinase assay). Conditions: 50 nM; read-out: Percent inhibition of kinase activity in vitro, PRKCE (PKC epsilon).
T2 sequence (Q02156 1-737): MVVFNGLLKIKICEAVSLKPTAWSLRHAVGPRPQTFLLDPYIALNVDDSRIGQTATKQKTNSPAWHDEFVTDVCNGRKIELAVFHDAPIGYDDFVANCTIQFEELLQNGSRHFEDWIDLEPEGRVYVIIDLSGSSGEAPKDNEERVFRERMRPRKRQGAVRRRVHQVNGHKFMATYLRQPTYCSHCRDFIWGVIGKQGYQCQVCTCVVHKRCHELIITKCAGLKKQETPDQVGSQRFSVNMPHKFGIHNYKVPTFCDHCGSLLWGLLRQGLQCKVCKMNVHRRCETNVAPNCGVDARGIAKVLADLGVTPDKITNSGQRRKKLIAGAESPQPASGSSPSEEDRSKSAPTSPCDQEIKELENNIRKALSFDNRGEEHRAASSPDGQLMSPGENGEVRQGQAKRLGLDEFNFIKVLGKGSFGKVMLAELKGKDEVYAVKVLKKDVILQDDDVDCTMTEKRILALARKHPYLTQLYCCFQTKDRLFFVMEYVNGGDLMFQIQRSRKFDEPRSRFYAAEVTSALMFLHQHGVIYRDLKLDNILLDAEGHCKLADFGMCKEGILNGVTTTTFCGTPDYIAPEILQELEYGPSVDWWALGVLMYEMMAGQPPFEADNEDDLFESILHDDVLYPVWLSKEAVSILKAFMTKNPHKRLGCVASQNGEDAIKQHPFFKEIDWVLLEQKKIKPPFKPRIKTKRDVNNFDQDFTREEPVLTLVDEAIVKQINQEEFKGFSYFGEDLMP
Assay type: biochemical
Description: as §1

Q: With `O=c1c2ccccc2[se]n1-c1nc(N[C@H]2CC[Se]C2)c2nc[nH]c2n1` [Compound 4] as the compound, how does the inhibition at 0.05 µM read?
A: 5%

Each compound was assayed against RET (Homo sapiens, UniProt P07949) (assay: High-throughput kinase assay). Conditions: 100 nM; read-out: Percent inhibition of kinase activity in vitro, RET.
Assay type: biochemical
Description: as §1

Chain of RET (P07949 29-1114): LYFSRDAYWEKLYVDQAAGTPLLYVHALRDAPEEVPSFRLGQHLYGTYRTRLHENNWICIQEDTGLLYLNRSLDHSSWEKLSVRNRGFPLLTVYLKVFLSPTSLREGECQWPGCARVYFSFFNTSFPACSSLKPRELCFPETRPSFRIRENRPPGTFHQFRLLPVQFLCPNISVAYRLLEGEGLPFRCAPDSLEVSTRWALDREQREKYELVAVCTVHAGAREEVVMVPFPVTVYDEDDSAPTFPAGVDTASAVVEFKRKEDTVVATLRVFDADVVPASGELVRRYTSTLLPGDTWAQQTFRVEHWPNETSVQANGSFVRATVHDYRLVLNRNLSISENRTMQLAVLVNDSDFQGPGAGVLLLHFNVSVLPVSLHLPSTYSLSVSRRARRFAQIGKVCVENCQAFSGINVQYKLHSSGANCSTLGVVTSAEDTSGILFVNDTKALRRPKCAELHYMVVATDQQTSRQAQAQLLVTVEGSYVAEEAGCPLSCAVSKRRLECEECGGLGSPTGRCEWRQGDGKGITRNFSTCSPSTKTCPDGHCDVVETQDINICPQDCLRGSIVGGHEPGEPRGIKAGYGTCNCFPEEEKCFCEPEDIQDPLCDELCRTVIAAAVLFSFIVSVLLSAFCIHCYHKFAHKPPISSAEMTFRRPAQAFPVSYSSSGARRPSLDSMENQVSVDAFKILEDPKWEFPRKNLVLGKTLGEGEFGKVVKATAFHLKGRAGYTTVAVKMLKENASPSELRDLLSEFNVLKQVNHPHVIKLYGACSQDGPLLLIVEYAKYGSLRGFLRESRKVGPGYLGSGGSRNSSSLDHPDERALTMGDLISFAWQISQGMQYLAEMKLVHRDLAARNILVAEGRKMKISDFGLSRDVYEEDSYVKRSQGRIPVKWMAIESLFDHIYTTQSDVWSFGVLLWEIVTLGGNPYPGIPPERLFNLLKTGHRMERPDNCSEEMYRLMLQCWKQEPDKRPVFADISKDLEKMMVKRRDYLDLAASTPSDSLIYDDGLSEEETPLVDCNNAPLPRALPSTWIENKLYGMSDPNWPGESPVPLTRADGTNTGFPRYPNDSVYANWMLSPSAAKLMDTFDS

Q: For `O=c1c2ccccc2[se]n1-c1nc(NC2CC[Se]C2)c2nc[nH]c2n1` (stereo not drawn) [Compound 2], which inhibition at 0.1 µM is on record?
A: 6%

Q: `O=c1c2ccccc2[se]n1-c1nc(N[C@H]2CC[Se]C2)c2nc[nH]c2n1` [Compound 4] was tested. Which inhibition at 0.1 µM did it give?
A: 10%

Same assay, conditions: 500 nM; read-out: Percent inhibition of kinase activity in vitro, RET

Q: With `O=c1c2ccccc2[se]n1-c1nc(NC2CC[Se]C2)c2nc[nH]c2n1` (stereo not drawn) [Compound 2] as the compound, how does the inhibition at 0.5 µM read?
A: 18%
